Assay [1] addresses T1, Dipeptidyl peptidase 4 (Homo sapiens, UniProt P27487).
Assay [2] has as its target Dipeptidyl peptidase II and dipeptidyl peptidase IV (DPP2 and DPP4) (Homo sapiens) (UniProt P27487+Q9UHL4). Kind of assay: Selectivity index against Dipeptidyl Peptidase IV and Dipeptidyl Peptidase II inhibitory activities. It counts as protein assay.
Assay [3] has as its target T2, Dipeptidyl peptidase 2 (Homo sapiens, UniProt Q9UHL4). Kind of assay: Inhibitory activity against Dipeptidyl Peptidase II.
Assay [4] addresses T1, Dipeptidyl peptidase 4. The source holds these as a separate data set.
Assay [5] addresses T2, Dipeptidyl peptidase 2.

T1 sequence (P27487 whole entry): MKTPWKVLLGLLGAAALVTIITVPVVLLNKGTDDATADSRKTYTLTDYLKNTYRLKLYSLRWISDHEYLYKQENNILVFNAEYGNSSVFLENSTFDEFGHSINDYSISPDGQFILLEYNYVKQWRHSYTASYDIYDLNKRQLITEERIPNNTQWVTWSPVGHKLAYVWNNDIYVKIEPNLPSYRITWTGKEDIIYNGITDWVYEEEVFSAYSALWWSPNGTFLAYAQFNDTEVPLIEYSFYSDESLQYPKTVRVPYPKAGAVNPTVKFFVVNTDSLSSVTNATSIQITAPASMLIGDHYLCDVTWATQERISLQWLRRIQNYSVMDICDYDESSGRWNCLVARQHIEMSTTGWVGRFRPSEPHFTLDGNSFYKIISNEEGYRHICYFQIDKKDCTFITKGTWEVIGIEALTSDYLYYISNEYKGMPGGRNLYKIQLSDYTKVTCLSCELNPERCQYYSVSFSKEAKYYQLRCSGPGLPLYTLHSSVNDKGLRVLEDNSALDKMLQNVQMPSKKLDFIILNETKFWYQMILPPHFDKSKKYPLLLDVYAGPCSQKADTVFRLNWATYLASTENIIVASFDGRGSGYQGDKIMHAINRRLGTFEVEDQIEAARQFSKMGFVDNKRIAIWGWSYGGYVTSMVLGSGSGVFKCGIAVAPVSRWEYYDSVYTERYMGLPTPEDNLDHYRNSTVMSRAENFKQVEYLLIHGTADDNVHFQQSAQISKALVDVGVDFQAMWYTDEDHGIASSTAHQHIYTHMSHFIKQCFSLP

In assay [1], `CCC(C)C(N)C(=O)N1CCCCC1` (configuration not stated) gave an IC50 of 67 µM.

`NCCCC(N)C(=O)N1CCCCC1` (configuration not stated) registered an SI in assay [2] of more than 1110. The molecule also came in with an IC50 in assay [1] of more than 500 µM.

On to `N[C@@H](CC(=O)O)C(=O)N1CCCC1`, for which the IC50 in assay [1] is 122 µM.

`NCC[C@H](N)C(=O)N1CCCCC1` came in with an SI in assay [2] of more than 7590. Besides, the IC50 in assay [1] was more than 1000 µM.

As for `NCCCCC(NC(=O)OCc1ccccc1)C(=O)N1CCCCC1` (configuration not stated), the SI in assay [2] is 64. The molecule also returned a half-inhibitory concentration (IC50) in assay [1] of 135 µM.

On to `NCCCCC(N)C(=O)N1CCCCC1` (configuration not stated), for which the SI in assay [2] is 154. This molecule also registered an IC50 in assay [1] of 247 µM.

In assay [1], `S=C(C1CCCN1)N1CCCC1` (configuration not stated) registered an IC50 of more than 500 µM.

As for `NCCCCC(N)C(=O)N1CCCC1` (configuration not stated), in assay [1], the half-inhibitory concentration (IC50) was determined as 39 µM.

In assay [1], `N[C@@H](CC1CCCCC1)C(=O)N1CCCCC1` returned an IC50 of 217 µM.

Molecule `NC[C@H](N)C(=O)N1CCCCC1` showed an IC50 in assay [1] of more than 1000 µM.

`NC(Cc1ccccc1)C(=O)N1CCCC1` (configuration not stated) had an IC50 in assay [1] of 21 µM.

For the molecule `NC(Cc1c[nH]cn1)C(=O)N1CCCC1` (configuration not stated), in assay [1], the IC50 worked out at 23.2 µM.

On to `NC(CO)C(=O)N1CCCC1` (configuration not stated), for which 190 µM corresponded to half-maximal inhibition in assay [1] (IC50). This IC50 is about 8.2-fold higher than that of the molecule before.

`C[C@H](N)C(=O)N1CCC[C@H]1C#N`: in assay [3], the IC50 is 110 µM.

`NCC(=O)N1CCCC1`: the 50% inhibitory concentration (IC50) in assay [1] was more than 1000 µM.

In assay [1], `NC(=O)CC(N)C(=O)N1CCCC1` (configuration not stated) displayed an IC50 of 188 µM.

Molecule `C[C@H](N)C(=O)N1CCCC1` showed an IC50 in assay [1] of 41 µM.

On to `NC(Cc1ccc(O)cc1)C(=O)N1CCCC1` (configuration not stated), for which the IC50 in assay [1] came to 14 µM.

Regarding `C[C@H](N)C(=S)N1CCSC1`, the inhibition constant Ki is 7.88 µM in assay [4] and 0.277 µM in assay [5].

As to `C[C@H](N)C(=S)N1CCCC1`, the figures for the inhibitory constant (Ki) in assay [4] and in assay [5] were 47.6 µM and 1.43 µM, respectively.

With `NC(Cc1c[nH]cn1)C(=O)N1CCCCC1` (configuration not stated), in assay [1], half-maximal inhibition (IC50) required 213 µM.

The values are drawn from ChEMBL document CHEMBL1135386, “Development of potent and selective dipeptidyl peptidase II inhibitors” (Bioorg Med Chem Lett, 2002).
